Measurements taken from US20210260009A1, “METHODS AND COMPOSITIONS FOR THE TREATMENT OF A RENAL DISEASE” (priority 2020, published 2021).

Assays:
WT E. coli cultures = assay: Indole in E. coli culture supernatants (Kovac's reagent and LC-MS/MS); format: cell-based; conditions: LB broth supplemented
Method: (§1) E. coli K-12 BW25113 strain were used in all the experiments (H2S production, indole production and in vivo experiments). For technical reasons, E. coli K-12 MG1655 was used in the cloning process to generate ΔdecR and tnaA-his, and E. coli K-12 W3110 was used for expressing and purifying TnaA-His. Bacteria were grown in LB broth (Merck) at 37° C. with shaking (250 rpm) aerobically or without shaking anaerobically and where mentioned, LB was supplemented with L-cysteine (Sigma-Aldrich), sodium hydrosulfide (Sigma-Aldrich) and/or L-tryptophan (Sigma-Aldrich). For selection on LB+Chloramphenicol (Cm) agar plates, a concentration of 10 μg/ml Cm was used. The E. coli tnaA739::kan strain was obtained from Yale University Coli Genetic Stock Center (CGSC) as part of the Keio collection (Baba et al., 2006). […]
The TMT fractions were analyzed by LC-MS3 on an Orbitrap Fusion™ Lumos™ Tribrid™ mass spectrometer. Labelled peptide samples were analyzed with an LC-MS3 data collection strategy (McAlister G C et al (2014) Anal. Chem. 86:7150-8) on an Orbitrap Fusion mass spectrometer (Thermo Fisher Scientific) equipped with a Thermo Easy-nLC 1200 for online sample handling and peptide separations. […] E. coli TnaA-His samples were analyzed at the Mass Spectrometry and Proteomics Resource Laboratory. […]

E. coli TnaA = molecular target: T1, E. coli TnaA (Escherichia coli, UniProt P0A853); assay: TnaA S-sulfhydration by pull-down and Western blot (E. coli lysates, purified TnaA); format: biochemical
T1 construct: made in house; host or cells: E. coli K-12 carrying the chromosomal tnaA-his allele under its native promoter (W3110 for purification)
Method: TnaA purity was determined by Coomassie blue staining.

E. coli lysates = assay: Pull-down of S-sulfhydrated proteins from E. coli lysates (Coomassie / silver stain)
[1] = molecular target: T2, E. coli apo-tryptophanase (TnaA) (Escherichia coli, UniProt P0A853); assay: In vitro tryptophanase assay (indole production by purified TnaA, Kovac's reagent); format: biochemical
T2 construct: purchased Sigma-Aldrich
Method: E. coli apo-tryptophanase (Sigma-Aldrich) was resuspended in 1 ml 100 mM potassium phosphate pH 8 buffer, aliquoted and kept at −20° C. 5 μl of apo-tryptophanase were added to 120 μl of 100 mM potassium phosphate pH 8 buffer with 1 mM pyrodxal-5-phosphate (PLP) and various treatments (NaCl, NaHS, L-cysteine, DTT or Na2S4) and incubated for 45 min at 37° C. Then 125 μl of 100 mM potassium phosphate with 5 mM L-tryptophan were added and the samples were incubated for 1 h at 37° C. Then 250 μl of 20% TCA were added to the samples, followed by a 15 min incubation on ice to precipitate TnaA. […] For the WT and ΔdecR TnaA activity assay, TnaA was purified from 10 ml bacterial cultures grown for 3 h in LB and then supplemented with 5 mM L-cysteine for 1 h, using the His-Spin protein miniprep kit (Zymo research). The purified protein was diluted 1:10 in 250 μl of 100 mM potassium phosphate pH 8 buffer with 1 mM PLP and 5 mM L-tryptophan and incubated for 1 h at 37° C., further processing was performed as mentioned above. TnaA activity was normalized to purified protein concentration, measured using BCA assay kit (Thermo Fisher).

E. coli = E. coli sulfide (H2S) production from L-cysteine in culture (lead acetate, methylene blue) and growth; format: cell-based; conditions: LB supplemented with cysteine, aerobic or anaerobic
Method: as §1, with “used.” for “used. The E. coli tnaA739::kan strain was obtained from Yale University Coli Genetic Stock Center (CGSC) as part of the Keio collection (Baba et al., 2006).”
Lead acetate paper was prepared by incubating pre-cut Whatman paper in 20 mM lead acetate solution for 20 min at room temperature and then was dried for 20 min at 110° C. and kept in the dark (Hine and Mitchell, 2017). […] 200 μl were plated in 96-well plates in duplicate and analyzed by lead acetate sulfide assay as described above. […] The samples were vortexed briefly and incubated for 20 min at 37° C., thereafter they were centrifuged for 4 min at max speed and the supernatants were transferred to a 96-well plate to determine absorbance at OD670 nm. […] Then 300 μl of DPD/FeCl3 were added and the samples were incubated at 37° C. for 20 min, centrifuged for 4 min at max speed and absorbance was measured in OD670 nm. […]

[2] = treated E. coli lysates, Western blot

T1 sequence (P0A853 other isoform, or with tags, fused parts or gaps): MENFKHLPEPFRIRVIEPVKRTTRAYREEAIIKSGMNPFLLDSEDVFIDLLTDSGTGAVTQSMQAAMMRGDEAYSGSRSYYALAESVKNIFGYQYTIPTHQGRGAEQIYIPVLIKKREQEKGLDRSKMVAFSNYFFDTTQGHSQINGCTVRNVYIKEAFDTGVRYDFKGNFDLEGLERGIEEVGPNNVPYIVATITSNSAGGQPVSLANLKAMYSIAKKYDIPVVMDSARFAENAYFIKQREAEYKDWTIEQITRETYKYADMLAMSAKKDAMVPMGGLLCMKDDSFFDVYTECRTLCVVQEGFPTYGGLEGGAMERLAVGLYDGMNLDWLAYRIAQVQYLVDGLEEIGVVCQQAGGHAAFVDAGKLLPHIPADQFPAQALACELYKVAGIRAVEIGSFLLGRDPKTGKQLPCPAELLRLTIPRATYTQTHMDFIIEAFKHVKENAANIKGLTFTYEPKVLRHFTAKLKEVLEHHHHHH
T2 sequence (P0A853 whole entry): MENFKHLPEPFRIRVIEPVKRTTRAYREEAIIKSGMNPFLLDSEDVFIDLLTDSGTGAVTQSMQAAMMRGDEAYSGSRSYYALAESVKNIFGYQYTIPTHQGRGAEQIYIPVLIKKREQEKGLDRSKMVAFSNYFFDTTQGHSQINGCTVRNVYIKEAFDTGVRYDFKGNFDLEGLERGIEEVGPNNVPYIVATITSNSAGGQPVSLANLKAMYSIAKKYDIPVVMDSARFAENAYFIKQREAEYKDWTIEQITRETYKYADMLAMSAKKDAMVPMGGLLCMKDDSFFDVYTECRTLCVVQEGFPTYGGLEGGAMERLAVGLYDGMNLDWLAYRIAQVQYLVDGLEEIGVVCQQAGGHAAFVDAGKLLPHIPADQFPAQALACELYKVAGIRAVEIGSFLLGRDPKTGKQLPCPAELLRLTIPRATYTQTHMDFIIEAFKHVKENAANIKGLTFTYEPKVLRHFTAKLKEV

Row | SMILES | indole concentrations in the supernatants (WT E. coli cultures) | TnaA S-sulfhydration (E. coli TnaA; [2]) | S-sulfhydration of proteins (E. coli lysates; treatment of bacterial lysates) | further results
1 | S [NaHS, sodium hydrosulfide] | reduced indole concentrations | increased | induced higher S-sulfhydration levels | –
2 | O[C@H](CS)[C@H](O)CS (racemic) [DTT, dithiothreitol] | – | – | – | increase of TnaA activity ([1]; assay control): 318%
3 | [Na+].[Na+].[S-]SS[S-] [Na2S4, disodium tetrasulfide] | – | – | – | reduction of TnaA enzymatic activity [1]: 60%; TnaA S-sulfhydration (E. coli TnaA; purified E. coli TnaA, incubation): led to TnaA S-sulfhydration
4 | OO [H2O2] | – | reduced | reduced the detection of S-sulfhydration proteins | –
5 | N[C@@H](CS)C(=O)O [cysteine, L-cysteine] | reduced indole concentrations | – | – | E. coli growth (E. coli): without any effects on growth; sulfide production by E. coli (E. coli; lead acetate assay): dose-dependent manner; S-sulfhydration of proteins (E. coli lysates; lysates of E. coli grown in supplemented media vs LB alone): higher level of S-sulfhydration
